ChEMBL document CHEMBL2016464, “Identification of Inhibitors of NOD1-Induced Nuclear Factor-κB Activation” (ACS Med Chem Lett, 2011)
pIC50: −log10 of the molar value. Values after ≈ are worked out from the molar mass of the structure shown.

Target: T1, Nucleotide-binding oligomerization domain-containing protein 1 (Homo sapiens, UniProt Q9Y239)
T1 sequence (Q9Y239 whole entry): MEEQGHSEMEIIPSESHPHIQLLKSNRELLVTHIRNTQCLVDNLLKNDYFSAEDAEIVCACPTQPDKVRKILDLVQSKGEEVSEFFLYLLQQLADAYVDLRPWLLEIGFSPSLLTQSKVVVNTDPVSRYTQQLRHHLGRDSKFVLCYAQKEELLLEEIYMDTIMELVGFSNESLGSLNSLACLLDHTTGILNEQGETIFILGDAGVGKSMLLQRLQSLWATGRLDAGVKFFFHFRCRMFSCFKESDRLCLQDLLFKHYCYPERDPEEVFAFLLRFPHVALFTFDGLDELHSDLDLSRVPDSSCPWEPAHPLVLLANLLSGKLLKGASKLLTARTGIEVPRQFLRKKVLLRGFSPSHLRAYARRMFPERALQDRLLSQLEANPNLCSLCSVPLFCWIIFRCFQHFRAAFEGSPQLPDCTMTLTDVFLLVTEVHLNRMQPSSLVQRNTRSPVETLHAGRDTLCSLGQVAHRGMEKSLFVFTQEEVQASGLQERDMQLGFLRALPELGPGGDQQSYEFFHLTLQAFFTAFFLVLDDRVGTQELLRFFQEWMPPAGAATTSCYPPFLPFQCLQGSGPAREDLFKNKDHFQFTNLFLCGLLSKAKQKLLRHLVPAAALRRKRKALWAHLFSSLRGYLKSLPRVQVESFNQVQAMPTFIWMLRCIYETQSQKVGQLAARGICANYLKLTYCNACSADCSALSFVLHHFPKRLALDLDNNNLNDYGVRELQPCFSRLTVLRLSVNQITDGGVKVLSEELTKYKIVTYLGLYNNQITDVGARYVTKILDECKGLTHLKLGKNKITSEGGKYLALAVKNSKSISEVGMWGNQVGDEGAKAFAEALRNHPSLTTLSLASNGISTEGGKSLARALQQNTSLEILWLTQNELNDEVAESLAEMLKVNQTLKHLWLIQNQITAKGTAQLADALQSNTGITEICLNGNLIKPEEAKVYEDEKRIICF
Assay: not given
Conditions: not given

Compound | pIC50
COc1ccc(NC(=O)c2ccc(CN3CCc4ccccc43)cc2)cc1 | < 4.70
CCOc1ccc(C(=O)Nc2ccc(CN3CCc4ccccc4C3)cc2)cc1 | < 4.70
CSc1ccc(NC(=O)c2ccc(CN3CCc4ccccc43)cc2)cc1 | < 4.70
O=C(Nc1ccc(OC(F)(F)F)cc1)c1ccc(CN2CCc3ccccc3C2)cc1 | 7.10
O=C(Nc1ccc(S(=O)(=O)O)cc1)c1ccc(CN2CCc3ccccc3C2)cc1 | < 4.70
COc1ccc(C(=O)Cn2c(N)nc3ccccc32)cc1 | < 4.70
COc1ccc(NC(=O)c2ccc(CN3CCCCC3)cc2)cc1 | < 4.70
O=C(Nc1ccc(CN2CCc3ccccc3C2)cc1)c1ccc(Cl)cc1 | < 4.70
CCOc1ccc(NC(=O)c2ccc(CCN3CCc4ccccc4C3)cc2)cc1 | < 4.70

Target: Nucleotide-binding oligomerization domain-containing protein 2 (Homo sapiens, UniProt Q9HC29)
Assay: not given
Conditions: not given

Chain of Nucleotide-binding oligomerization domain-containing protein 2 (Q9HC29 whole entry, the tested form may be a part): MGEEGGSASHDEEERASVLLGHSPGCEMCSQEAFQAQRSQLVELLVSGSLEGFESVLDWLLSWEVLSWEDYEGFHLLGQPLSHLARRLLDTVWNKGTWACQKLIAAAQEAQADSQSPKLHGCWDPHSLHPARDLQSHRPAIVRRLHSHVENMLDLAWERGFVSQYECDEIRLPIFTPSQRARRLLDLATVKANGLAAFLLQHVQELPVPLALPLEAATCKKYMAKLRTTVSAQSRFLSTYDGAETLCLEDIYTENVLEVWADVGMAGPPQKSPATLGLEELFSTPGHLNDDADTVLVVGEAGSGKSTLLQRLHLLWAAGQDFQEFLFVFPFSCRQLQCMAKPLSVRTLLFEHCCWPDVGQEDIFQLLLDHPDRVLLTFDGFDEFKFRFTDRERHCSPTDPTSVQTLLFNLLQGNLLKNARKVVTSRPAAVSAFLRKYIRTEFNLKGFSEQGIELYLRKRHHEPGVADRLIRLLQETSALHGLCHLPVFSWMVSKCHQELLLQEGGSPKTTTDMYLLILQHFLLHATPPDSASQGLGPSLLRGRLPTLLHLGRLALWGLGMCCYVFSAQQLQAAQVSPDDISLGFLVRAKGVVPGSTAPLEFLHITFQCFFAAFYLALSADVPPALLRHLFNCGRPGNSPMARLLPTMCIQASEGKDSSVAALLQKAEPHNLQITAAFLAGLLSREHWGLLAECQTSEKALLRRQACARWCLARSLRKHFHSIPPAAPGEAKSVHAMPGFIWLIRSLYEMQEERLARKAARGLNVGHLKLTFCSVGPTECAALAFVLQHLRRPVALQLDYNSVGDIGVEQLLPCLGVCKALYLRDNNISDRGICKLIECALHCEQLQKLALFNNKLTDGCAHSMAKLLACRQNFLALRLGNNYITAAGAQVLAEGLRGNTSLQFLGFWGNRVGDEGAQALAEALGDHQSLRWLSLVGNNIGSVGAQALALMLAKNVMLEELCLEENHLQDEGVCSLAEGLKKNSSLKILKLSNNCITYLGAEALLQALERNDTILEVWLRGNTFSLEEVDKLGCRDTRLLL

Compound | pIC50
CCC(=O)N1c2ccc(S(=O)(=O)N3CCN(c4ccc(C(C)=O)cc4)CC3)cc2CC1C (racemic) | 5.80
CC(=O)N1c2ccc(S(=O)(=O)N3CCN(c4ccc(C)cc4)CC3)cc2CC1C (racemic) | 5.46
COc1ccc(NC(=O)c2ccc(CN3CCc4ccccc43)cc2)cc1 | < 4.70
CCOc1ccc(C(=O)Nc2ccc(CN3CCc4ccccc4C3)cc2)cc1 | < 4.70
CSc1ccc(NC(=O)c2ccc(CN3CCc4ccccc43)cc2)cc1 | < 4.70
CC(=O)N1c2ccc(S(=O)(=O)N3CCN(c4ccc(Cl)cc4)CC3)cc2CC1C (racemic) | 5.76
Cc1ccc(S(=O)(=O)n2cnc3ccccc32)cc1 | < 4.70
O=C(Nc1ccc(OC(F)(F)F)cc1)c1ccc(CN2CCc3ccccc3C2)cc1 | 7.52
COc1ccc(NC(=O)c2ccc(CN3CCc4ccccc4C3)cc2)cc1 | 6.11
O=C(Nc1ccc(S(=O)(=O)O)cc1)c1ccc(CN2CCc3ccccc3C2)cc1 | < 4.70
CC(=O)c1ccc(N2CCN(S(=O)(=O)c3ccc4c(c3)CC(C)N4C(C)=O)CC2)cc1 (racemic) | 5.43
O=C(Nc1ccc(F)cc1)c1ccc(CN2CCc3ccccc3C2)cc1 | 5.73
CCOc1ccc(NC(=O)c2ccc(CN3CCc4ccccc4C3)cc2)cc1 | 6.24
CSc1ccc(NC(=O)c2ccc(CN3CCc4ccccc4C3)cc2)cc1 | 6.59
COc1ccc(C(=O)Cn2c(N)nc3ccccc32)cc1 | < 4.70
COc1ccc(N2CCN(S(=O)(=O)c3ccc4c(c3)CC(C)N4C(=O)C3CC3)CC2)cc1 (racemic) | 6.41
Cc1ccc(NC(=O)c2ccc(CN3CCc4ccccc4C3)cc2)cc1 | < 4.70
CCOC(=O)c1ccc(NC(=O)c2ccc(CN3CCc4ccccc4C3)cc2)cc1 | 6.40
CC1Cc2cc(S(=O)(=O)N3CCN(c4ccc([N+](=O)[O-])cc4)CC3)ccc2N1C(=O)C1CC1 (racemic) | 6.70
COc1ccc(NC(=O)c2ccc(CN3CCCCC3)cc2)cc1 | < 4.70
O=C(Nc1ccc(CN2CCc3ccccc3C2)cc1)c1ccc(Cl)cc1 | < 4.70
CN(C)c1ccc(NC(=O)c2ccc(CN3CCc4ccccc4C3)cc2)cc1 | 5.45
CCOc1ccc(NC(=O)c2ccc(CCN3CCc4ccccc4C3)cc2)cc1 | < 4.70
COc1ccc(N2CCN(S(=O)(=O)c3ccc4c(c3)CC(C)N4C(C)=O)CC2)cc1 (racemic) | 5.48
CC1Cc2cc(S(=O)(=O)N3CCN(c4ccc(Cl)cc4)CC3)ccc2N1C(=O)C1CC1 (racemic) | 5.44
CCOC(=O)c1ccc(NC(=O)c2ccc(CCN3CCc4ccccc4C3)cc2)cc1 | < 4.70
O=C(Nc1ccc(Cl)cc1)c1ccc(CN2CCc3ccccc3C2)cc1 | 5.45
CC(=O)N1c2ccc(S(=O)(=O)N3CCN(c4ccccc4)CC3)cc2CC1C (racemic) | 5.08
CCC(=O)N1c2ccc(S(=O)(=O)N3CCN(c4ccc(Cl)cc4)CC3)cc2CC1C (racemic) | 6.22

Test system: not listed separately
Assay: Solubility of the compound at pH 7.4
Type: physicochemical
Conditions: buffer

Compound | solubility
CCC(=O)N1c2ccc(S(=O)(=O)N3CCN(c4ccc(C(C)=O)cc4)CC3)cc2CC1C (racemic) | 0.1 µg/mL (≈ 0.22 µM)
CC(=O)N1c2ccc(S(=O)(=O)N3CCN(c4ccc(C)cc4)CC3)cc2CC1C (racemic) | 0.1 µg/mL (≈ 0.242 µM)
CC(=O)N1c2ccc(S(=O)(=O)N3CCN(c4ccc(Cl)cc4)CC3)cc2CC1C (racemic) | 0.1 µg/mL (≈ 0.23 µM)
CC(=O)c1ccc(N2CCN(S(=O)(=O)c3ccc4c(c3)CC(C)N4C(C)=O)CC2)cc1 (racemic) | 0.1 µg/mL (≈ 0.226 µM)
COc1ccc(N2CCN(S(=O)(=O)c3ccc4c(c3)CC(C)N4C(=O)C3CC3)CC2)cc1 (racemic) | 0.1 µg/mL (≈ 0.22 µM)
CC1Cc2cc(S(=O)(=O)N3CCN(c4ccc([N+](=O)[O-])cc4)CC3)ccc2N1C(=O)C1CC1 (racemic) | 0.1 µg/mL (≈ 0.213 µM)
COc1ccc(N2CCN(S(=O)(=O)c3ccc4c(c3)CC(C)N4C(C)=O)CC2)cc1 (racemic) | 0.1 µg/mL (≈ 0.233 µM)
CC1Cc2cc(S(=O)(=O)N3CCN(c4ccc(Cl)cc4)CC3)ccc2N1C(=O)C1CC1 (racemic) | 0.1 µg/mL (≈ 0.217 µM)
CC(=O)N1c2ccc(S(=O)(=O)N3CCN(c4ccccc4)CC3)cc2CC1C (racemic) | 0.1 µg/mL (≈ 0.25 µM)
CCC(=O)N1c2ccc(S(=O)(=O)N3CCN(c4ccc(Cl)cc4)CC3)cc2CC1C (racemic) | 0.1 µg/mL (≈ 0.223 µM)

Test system: not listed separately
Assay: cells
Conditions: Homo sapiens, HEK-293T, 14 h
Description: Inhibition of TNFalpha-induced NFkappaB activation in HEK293T cells after 14 hrs by luciferase reporter gene assay

Compound | pIC50
CCC(=O)N1c2ccc(S(=O)(=O)N3CCN(c4ccc(C(C)=O)cc4)CC3)cc2CC1C (racemic) | 5.79
CC(=O)N1c2ccc(S(=O)(=O)N3CCN(c4ccc(C)cc4)CC3)cc2CC1C (racemic) | 5.36
COc1ccc(NC(=O)c2ccc(CN3CCc4ccccc43)cc2)cc1 | < 4.70
CCOc1ccc(C(=O)Nc2ccc(CN3CCc4ccccc4C3)cc2)cc1 | < 4.70
CSc1ccc(NC(=O)c2ccc(CN3CCc4ccccc43)cc2)cc1 | < 4.70
CC(=O)N1c2ccc(S(=O)(=O)N3CCN(c4ccc(Cl)cc4)CC3)cc2CC1C (racemic) | 5.24
Cc1ccc(S(=O)(=O)n2cnc3ccccc32)cc1 | < 4.70
O=C(Nc1ccc(OC(F)(F)F)cc1)c1ccc(CN2CCc3ccccc3C2)cc1 | 7.52
COc1ccc(NC(=O)c2ccc(CN3CCc4ccccc4C3)cc2)cc1 | 6.19
O=C(Nc1ccc(S(=O)(=O)O)cc1)c1ccc(CN2CCc3ccccc3C2)cc1 | < 4.70
CC(=O)c1ccc(N2CCN(S(=O)(=O)c3ccc4c(c3)CC(C)N4C(C)=O)CC2)cc1 (racemic) | 5.22
O=C(Nc1ccc(F)cc1)c1ccc(CN2CCc3ccccc3C2)cc1 | 5.54
CCOc1ccc(NC(=O)c2ccc(CN3CCc4ccccc4C3)cc2)cc1 | 5.69
CSc1ccc(NC(=O)c2ccc(CN3CCc4ccccc4C3)cc2)cc1 | 6.43
COc1ccc(C(=O)Cn2c(N)nc3ccccc32)cc1 | < 4.70
COc1ccc(N2CCN(S(=O)(=O)c3ccc4c(c3)CC(C)N4C(=O)C3CC3)CC2)cc1 (racemic) | 5.41
Cc1ccc(NC(=O)c2ccc(CN3CCc4ccccc4C3)cc2)cc1 | < 4.70
CCOC(=O)c1ccc(NC(=O)c2ccc(CN3CCc4ccccc4C3)cc2)cc1 | 6.85
CC1Cc2cc(S(=O)(=O)N3CCN(c4ccc([N+](=O)[O-])cc4)CC3)ccc2N1C(=O)C1CC1 (racemic) | 6.62
COc1ccc(NC(=O)c2ccc(CN3CCCCC3)cc2)cc1 | < 4.70
O=C(Nc1ccc(CN2CCc3ccccc3C2)cc1)c1ccc(Cl)cc1 | < 4.70
CN(C)c1ccc(NC(=O)c2ccc(CN3CCc4ccccc4C3)cc2)cc1 | 5.74
CCOc1ccc(NC(=O)c2ccc(CCN3CCc4ccccc4C3)cc2)cc1 | < 4.70
COc1ccc(N2CCN(S(=O)(=O)c3ccc4c(c3)CC(C)N4C(C)=O)CC2)cc1 (racemic) | 5.37
CC1Cc2cc(S(=O)(=O)N3CCN(c4ccc(Cl)cc4)CC3)ccc2N1C(=O)C1CC1 (racemic) | 5.14
CCOC(=O)c1ccc(NC(=O)c2ccc(CCN3CCc4ccccc4C3)cc2)cc1 | 4.97
O=C(Nc1ccc(Cl)cc1)c1ccc(CN2CCc3ccccc3C2)cc1 | 6.31
CC(=O)N1c2ccc(S(=O)(=O)N3CCN(c4ccccc4)CC3)cc2CC1C (racemic) | 4.85
CCC(=O)N1c2ccc(S(=O)(=O)N3CCN(c4ccc(Cl)cc4)CC3)cc2CC1C (racemic) | 6.24

Test system: HEK-293T
Assay: Cytotoxicity against HEK293T cells at 20 uM by alamar blue assay
Type: cell-based
Conditions: human

Compound | Activity
CCC(=O)N1c2ccc(S(=O)(=O)N3CCN(c4ccc(C(C)=O)cc4)CC3)cc2CC1C (racemic) | 0%
CC(=O)N1c2ccc(S(=O)(=O)N3CCN(c4ccc(C)cc4)CC3)cc2CC1C (racemic) | 0%
COc1ccc(NC(=O)c2ccc(CN3CCc4ccccc43)cc2)cc1 | 0%
CCOc1ccc(C(=O)Nc2ccc(CN3CCc4ccccc4C3)cc2)cc1 | 0%
CSc1ccc(NC(=O)c2ccc(CN3CCc4ccccc43)cc2)cc1 | 0%
CC(=O)N1c2ccc(S(=O)(=O)N3CCN(c4ccc(Cl)cc4)CC3)cc2CC1C (racemic) | 0%
Cc1ccc(S(=O)(=O)n2cnc3ccccc32)cc1 | 0%
O=C(Nc1ccc(OC(F)(F)F)cc1)c1ccc(CN2CCc3ccccc3C2)cc1 | 0%
COc1ccc(NC(=O)c2ccc(CN3CCc4ccccc4C3)cc2)cc1 | 0%
O=C(Nc1ccc(S(=O)(=O)O)cc1)c1ccc(CN2CCc3ccccc3C2)cc1 | 0%
CC(=O)c1ccc(N2CCN(S(=O)(=O)c3ccc4c(c3)CC(C)N4C(C)=O)CC2)cc1 (racemic) | 0%
O=C(Nc1ccc(F)cc1)c1ccc(CN2CCc3ccccc3C2)cc1 | 0%
CCOc1ccc(NC(=O)c2ccc(CN3CCc4ccccc4C3)cc2)cc1 | 0%
CSc1ccc(NC(=O)c2ccc(CN3CCc4ccccc4C3)cc2)cc1 | 0%
COc1ccc(C(=O)Cn2c(N)nc3ccccc32)cc1 | 0%
COc1ccc(N2CCN(S(=O)(=O)c3ccc4c(c3)CC(C)N4C(=O)C3CC3)CC2)cc1 (racemic) | 0%
Cc1ccc(NC(=O)c2ccc(CN3CCc4ccccc4C3)cc2)cc1 | 0%
CCOC(=O)c1ccc(NC(=O)c2ccc(CN3CCc4ccccc4C3)cc2)cc1 | 0%
CC1Cc2cc(S(=O)(=O)N3CCN(c4ccc([N+](=O)[O-])cc4)CC3)ccc2N1C(=O)C1CC1 (racemic) | 0%
COc1ccc(NC(=O)c2ccc(CN3CCCCC3)cc2)cc1 | 0%
O=C(Nc1ccc(CN2CCc3ccccc3C2)cc1)c1ccc(Cl)cc1 | 0%
CN(C)c1ccc(NC(=O)c2ccc(CN3CCc4ccccc4C3)cc2)cc1 | 0%
CCOc1ccc(NC(=O)c2ccc(CCN3CCc4ccccc4C3)cc2)cc1 | 0%
COc1ccc(N2CCN(S(=O)(=O)c3ccc4c(c3)CC(C)N4C(C)=O)CC2)cc1 (racemic) | 0%
CC1Cc2cc(S(=O)(=O)N3CCN(c4ccc(Cl)cc4)CC3)ccc2N1C(=O)C1CC1 (racemic) | 0%
CCOC(=O)c1ccc(NC(=O)c2ccc(CCN3CCc4ccccc4C3)cc2)cc1 | 0%
O=C(Nc1ccc(Cl)cc1)c1ccc(CN2CCc3ccccc3C2)cc1 | 0%
CC(=O)N1c2ccc(S(=O)(=O)N3CCN(c4ccccc4)CC3)cc2CC1C (racemic) | 0%
CCC(=O)N1c2ccc(S(=O)(=O)N3CCN(c4ccc(Cl)cc4)CC3)cc2CC1C (racemic) | 0%
